Source: ChEMBL document CHEMBL4340512, “Discovery of novel triazolo[4,3-b]pyridazin-3-yl-quinoline derivatives as PIM inhibitors” (Eur J Med Chem, 2019)

Legend:
[1] = Clearance in iv dosed Balb/c mouse administered as single dose measured after 0.08 to 4 hrs by HPLC/MS analysis; type: ADME, organism-based; conditions: in vivo
[2] = target: T1, Serine/threonine-protein kinase pim-1 (Homo sapiens, UniProt P11309); assay: Inhibition of PIM1 in human NCI-H1299 cells assessed as reduction in BAD phosphorylation at Ser-112 residue incubated for 4 hrs by ELISA; type: cell-based; conditions: read-out: EC50
[3] = Clearance in iv dosed Balb/c mouse administered as single dose measured after 0.08 to 4 hrs by HPLC/MS analysis relative to hepatic blood flow; type: ADME, organism-based; conditions: in vivo
[4] = target: Voltage-gated inwardly rectifying potassium channel KCNH2 (Homo sapiens, UniProt Q12809)
[5] = target: Serine/threonine-protein kinase pim-2 (Homo sapiens, UniProt Q9P1W9); assay: Inhibition of His tagged human recombinant PIM2 using PIM tide (ARKRRRHPSGPPTA) as substrate incubated for 1 hr by fluorescence based assay
[6] = target: T1, Serine/threonine-protein kinase pim-1; assay: Inhibition of His tagged human recombinant PIM1 using PIM tide (ARKRRRHPSGPPTA) as substrate incubated for 1 hr by fluorescence based assay
[7] = target: Serine/threonine-protein kinase pim-3 (Homo sapiens, UniProt Q86V86); assay: Inhibition of N-terminal 6-His tagged human recombinant PIM3 using PIM tide (ARKRRRHPSGPPTA) as substrate incubated for 1 hr by fluorescence based assay
[8] = target: T2, Receptor-type tyrosine-protein kinase FLT3 (Homo sapiens, UniProt P36888); assay: Inhibition of human FLT3 using EAIYAAPFAKKK as substrate incubated for 60 mins by fluorescence based assay
T2 sequence (P36888 whole entry): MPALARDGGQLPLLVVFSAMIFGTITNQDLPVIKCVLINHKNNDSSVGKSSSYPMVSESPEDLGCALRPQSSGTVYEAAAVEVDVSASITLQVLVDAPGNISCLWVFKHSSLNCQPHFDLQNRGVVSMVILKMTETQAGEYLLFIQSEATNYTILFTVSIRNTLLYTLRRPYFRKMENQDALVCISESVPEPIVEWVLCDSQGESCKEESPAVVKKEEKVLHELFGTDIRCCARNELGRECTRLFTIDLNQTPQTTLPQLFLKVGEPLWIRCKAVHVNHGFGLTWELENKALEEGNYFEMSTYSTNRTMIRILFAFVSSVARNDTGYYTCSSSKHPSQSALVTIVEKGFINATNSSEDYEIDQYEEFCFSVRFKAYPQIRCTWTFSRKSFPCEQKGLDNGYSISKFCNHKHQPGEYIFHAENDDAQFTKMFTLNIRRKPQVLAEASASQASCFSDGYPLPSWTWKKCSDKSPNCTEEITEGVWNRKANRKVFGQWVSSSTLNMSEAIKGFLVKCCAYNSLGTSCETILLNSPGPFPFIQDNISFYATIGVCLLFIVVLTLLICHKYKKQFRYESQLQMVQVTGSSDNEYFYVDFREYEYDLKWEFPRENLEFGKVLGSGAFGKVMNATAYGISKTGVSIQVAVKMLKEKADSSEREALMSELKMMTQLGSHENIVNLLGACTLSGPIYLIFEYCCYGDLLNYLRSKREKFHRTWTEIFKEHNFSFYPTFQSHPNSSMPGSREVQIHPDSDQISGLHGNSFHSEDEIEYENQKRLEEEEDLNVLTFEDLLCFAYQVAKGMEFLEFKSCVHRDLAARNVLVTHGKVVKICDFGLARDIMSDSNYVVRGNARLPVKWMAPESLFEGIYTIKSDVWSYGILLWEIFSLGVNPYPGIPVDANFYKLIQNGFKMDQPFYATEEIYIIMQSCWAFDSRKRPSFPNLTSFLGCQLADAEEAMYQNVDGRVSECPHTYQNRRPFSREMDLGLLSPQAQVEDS

PC-3 = assay: Antiproliferative activity against human PC3 cells incubated for 72 hrs by CellTiter-Glo luminescence assay; type: functional; conditions: PC-3, 72 h
SK-MEL19 = assay: Antiproliferative activity against human SK-MEL-19 cells incubated for 72 hrs by CellTiter-Glo luminescence assay; type: functional; conditions: SK-MEL19, 72 h
MDA-MB-231 = assay: Antiproliferative activity against human MDA-MB-231 cells incubated for 72 hrs by CellTiter-Glo luminescence assay; type: functional; conditions: MDA-MB-231, 72 h
DU-145 = assay: Antiproliferative activity against human DU145 cells incubated for 72 hrs by CellTiter-Glo luminescence assay; type: functional; conditions: DU-145, 72 h
U-87 MG = assay: Antiproliferative activity against human U87MG cells incubated for 72 hrs by CellTiter-Glo luminescence assay; type: functional, U-87MG ATCC
MIA PaCa-2 = assay: Antiproliferative activity against human MIAPaCa2 cells incubated for 72 hrs by CellTiter-Glo luminescence assay; type: functional; conditions: MIA PaCa-2, 72 h
T47D = assay: Antiproliferative activity against human T47D cells incubated for 72 hrs by CellTiter-Glo luminescence assay; type: functional
MV4-11 = assay: Antiproliferative activity against human MV4-11 cells incubated for 72 hrs by CellTiter-Glo luminescence assay; type: functional; conditions: MV4-11, 72 h
JeKo-1 = assay: Antiproliferative activity against human JeKo1 cells incubated for 72 hrs by CellTiter-Glo luminescence assay; type: functional; conditions: JeKo-1, 72 h
HCT-116 = assay: Antiproliferative activity against human HCT116 cells incubated for 72 hrs by CellTiter-Glo luminescence assay; type: functional; conditions: HCT-116, 72 h
Raji = assay: Antiproliferative activity against human Raji cells incubated for 72 hrs by CellTiter-Glo luminescence assay; type: functional

EC50 [2] [µM] | IC50 [5] [µM] | IC50 [6] [µM] | IC50 [7] [µM] | IC50 [8] [µM] | Structure (SMILES) | IC50 [4] [µM] | further results
0.155 | 3.59 | 0.018 | 0.012 | 6.32 | CN1CCOc2c1cnn1c(-c3ccc4c(F)c(F)cc(NCC5(F)CCNCC5)c4n3)nnc21 | > 20 | clearance [1]: 3.83 mL/min/kg; CLH [3]: < 30%
0.215 | 5.53 | 0.021 | 0.055 | > 10 | CN1CCOc2c1cnn1c(-c3ccc4cccc(NCC5(F)CCNCC5)c4n3)nnc21 |  | 
0.265 | 8.04 | 0.046 | 1.55 | > 10 | CN1CCOc2c1cnn1c(-c3ccc4cccc(NC5CCCCC5)c4c3)nnc21 | 6.06 | 
0.071 | 0.696 | 0.012 | 0.006 | > 10 | CN1CCOc2c1cnn1c(-c3ccc4ccc(Cl)c(NCC5(F)CCNCC5)c4n3)nnc21 | 2.1 | 
0.179 | 4.25 | 0.014 | 0.082 | > 10 | CN1CCC(CNc2cccc3ccc(-c4nnc5c6c(cnn45)N(C)CCO6)nc23)CC1 | > 20 | 
0.2 | 0.122 | 0.007 | 0.026 | > 10 | CN1CCOc2c1cnn1c(-c3ccc4ccnc(NCC5(F)CCNCC5)c4c3)nnc21 | > 20 | clearance [1]: 23.2 mL/min/kg; CLH [3]: < 30%
 |  |  |  |  | O=C(CCCCCCC(=O)Nc1ccccc1)NO [VORINOSTAT] |  | GI50 (PC-3): 5 µM
 |  |  |  |  | CS(=O)(=O)CCNCc1ccc(-c2ccc3ncnc(Nc4ccc(OCc5cccc(F)c5)c(Cl)c4)c3c2)o1 [LAPATINIB] |  | GI50 (SK-MEL19): 5 µM; GI50 (MDA-MB-231): 20 µM; GI50 (DU-145): 20 µM; GI50 (U-87 MG): 10 µM; GI50 (MIA PaCa-2): 10 µM; GI50 (T47D): 40 µM; GI50 (MV4-11): 10 µM; GI50 (JeKo-1): 5 µM; GI50 (HCT-116): 20 µM
0.283 | 3.01 | 0.03 | 0.014 | 3.97 | CN1CCOc2c1cnn1c(-c3ccc4c(F)ccc(NCC5(F)CCNCC5)c4n3)nnc21 | > 20 | clearance [1]: 9.33 mL/min/kg; CLH [3]: < 30%
0.22 | 3.33 | 0.032 | 0.3 | > 10 | CN1CCOc2c1cnn1c(-c3ccc4cccc(NC5CCCCC5)c4n3)nnc21 | > 20 | clearance [1]: 23.7 mL/min/kg; CLH [3]: < 30%
 |  |  |  |  | O=C(NOC[C@H](O)CO)c1ccc(F)c(F)c1Nc1ccc(I)cc1F [MIRDAMETINIB] |  | GI50 (MDA-MB-231): 1 µM
0.212 | 2.87 | 0.007 | 0.04 | > 10 | CN1CCC(Nc2cccc3ccc(-c4nnc5c6c(cnn45)N(C)CCO6)nc23)CC1 | > 20 | 
 |  |  |  |  | CC(=O)c1c(C)c2cnc(Nc3ccc(N4CCNCC4)cn3)nc2n(C2CCCC2)c1=O [PALBOCICLIB] |  | GI50 (SK-MEL19): 30 µM; GI50 (MDA-MB-231): 30 µM; GI50 (Raji): 30 µM; GI50 (JeKo-1): 30 µM
 |  |  |  |  | CC(=O)O[C@@]12CO[C@@H]1C[C@H](O)[C@@]1(C)C(=O)[C@H](O)C3=C(C)[C@@H](OC(=O)[C@H](O)[C@@H](NC(=O)OC(C)(C)C)c4ccccc4)C[C@@](O)([C@@H](OC(=O)c4ccccc4)[C@H]21)C3(C)C [DOCETAXEL ANHYDROUS] |  | GI50 (SK-MEL19): 0.002 µM; GI50 (MV4-11): 0.0005 µM
 |  |  |  |  | CS(=O)(=O)N1CCN(Cc2cc3nc(-c4cccc5[nH]ncc45)nc(N4CCOCC4)c3s2)CC1 [PICTILISIB] |  | GI50 (SK-MEL19): 6 µM; GI50 (PC-3): 3 µM; GI50 (MDA-MB-231): 12 µM; GI50 (U-87 MG): 6 µM; GI50 (MIA PaCa-2): 12 µM; GI50 (T47D): 3 µM; GI50 (MV4-11): 3 µM; GI50 (JeKo-1): 5 µM
0.11 | 1.1 | 0.026 | 0.238 | > 10 | CN1CCOc2c1cnn1c(-c3ccc4ccnc(NC5CCCCC5)c4c3)nnc21 |  | 
 |  |  |  |  | CC(C)C[C@H](NC(=O)[C@H](Cc1ccccc1)NC(=O)c1cnccn1)B(O)O [BORTEZOMIB] |  | GI50 (PC-3): 0.04 µM
0.915 | 1.65 | 0.016 | 0.076 |  | CC(C)N1CCOc2c1cnn1c(-c3ccc4cccc(NCC5CCNCC5)c4n3)nnc21 |  | 
